Experimental data published in patent US20150126448A1 (Genentech, Inc., priority 2003, published 2015).

Tests used:
[1] = system: MDA-MB-435 cells; assay: MDA-MB-435 cell migration transwell assay; type: cell-based
Description: (A) Representative purity of HGF mutants. […] Incomplete conversion of the secreted single-chain form by CHO expression in 1% FBS (v/v) is shown in lane 1. […] Molecular weight markers are shown as Mr×10^3. […] Values represent the averages of 4-8 independent experiments±SD.
Breast cancer cells MDA-MB-435 (HTB-129, ATCC, Manassas, Va.) were cultured in recommended serum-supplemented medium. Confluent cells were detached in PBS containing 10 mM EDTA and diluted with serum-free medium to a final concentration of 0.6−0.8×10^5 cells/ml. 0.2 ml of this suspension ([…]) was added in triplicate to the upper chambers of 24-well transwell plates (8 μm pore size) (HTS Multiwell™ Insert System, Falcon, Franklin Lakes, N.J.) pre-coated with 10 μg/ml of rat tail collagen Type I (Upstate, Lake Placid, N.Y.). […] After incubation for 13-14 h, cells on the apical side of the membrane were removed and those that migrated to the basal side were fixed in 4% paraformaldehyde followed by staining with a 0.5% crystal violet solution. After washing and airdrying, cells were solubilized in 10% acetic acid and the A560 was measured on a Molecular Devices microplate reader. […] Photographs of stained cells were taken with a Spot digital camera (Diagnostics Instruments, Inc., Sterling Heights, Mich.) connected to a Leitz microscope (Leica Mikroskope & Systeme GmbH, Wetzlar, Germany). […]

[2] = target: Met-IgG fusion protein (UniProt P08581); assay: HGF/Met-IgG competition binding ELISA; competitor: 1 nM biotinylated HGF
[3] = system: BxPC3 cells; assay: HGF-dependent proliferation assay in BxPC3 cells (stimulation); type: cell-based, human; conditions: n=12
Description: BxPC3 (human pancreatic adeocarcinoma; ECACC No. 93120816) were obtained from the European Collection of Cell Cultures (CAMR Centre for Applied Microbiology and Research, Porton Down, Salisbury, Wiltshire (UK) and were used in an HGF-dependent proliferation assay. Cells were grown in RPMI medium containing 10% FCS (Sigma F-6178, St. Louis, Mo.), 10 mM HEPES, 2 mM glutamine, 1× Penicillin-Streptomycin (Invitrogen 15140-122, Carlsbad, Calif.), 100× penicillin 10000 μg/ml-streptomycin 10000 mg/ml), and G418 (Invitrogen 10131-035) at 250 mg/ml. The cells were sequentially washed with PBS, PBS containing 10 mM EDTA, then removed using trypsin. The cells were harvested into serum containing media and the cell density was determined using a hemacytometer. Cells at 50000-75000/ml were seeded at 200 μl per well into a white bottom MT plate (Cultur Plate™ 6005680 Packard/PerkinElmer, Boston, Mass.) using the inside 60 wells only and allowed to grow for 24 h. The media was removed, the cells were washed with PBS and 200 ml of serum-free media containing 0.1% BSA (SF-BSA) was added back to the cells. The cells were grown for an additional 24 h. […]
The cells were allowed to grow for 72 h and then assayed using the CellTiter-Glo Luminescent Kit (Promega G7571, Madison, Wis.). […] The microtiter plate was read on a Tropix TR717 microplate luminometer (Berthold 75323 Bad Wildbad, Germany). […]

[4] = system: BxPC3 cells; assay: Inhibition of HGF-dependent cell proliferation in BxPC3 cells; type: cell-based, human; conditions: 5 μg/ml test protein, 25 ng/ml HGF WT; for inhibition of HGF-dependent cell proliferation activity (% activity II): normalized to 5 μg/ml mutant alone (0%) and 25 ng/ml HGF WT (100%); for inhibition of HGF-dependent cell proliferation activity (% activity I): normalized to no HGF (0%) and 25 ng/ml HGF WT (100%)
Description: BxPC3 (human pancreatic adeocarcinoma; ECACC No. 93120816) were obtained from the European Collection of Cell Cultures (CAMR Centre for Applied Microbiology and Research, Porton Down, Salisbury, Wiltshire (UK) and were used in an HGF-dependent proliferation assay. Cells were grown in RPMI medium containing 10% FCS (Sigma F-6178, St. Louis, Mo.), 10 mM HEPES, 2 mM glutamine, 1× Penicillin-Streptomycin (Invitrogen 15140-122, Carlsbad, Calif.), 100× penicillin 10000 μg/ml-streptomycin 10000 mg/ml), and G418 (Invitrogen 10131-035) at 250 mg/ml. The cells were sequentially washed with PBS, PBS containing 10 mM EDTA, then removed using trypsin. The cells were harvested into serum containing media and the cell density was determined using a hemacytometer. Cells at 50000-75000/ml were seeded at 200 μl per well into a white bottom MT plate (Cultur Plate™ 6005680 Packard/PerkinElmer, Boston, Mass.) using the inside 60 wells only and allowed to grow for 24 h. The media was removed, the cells were washed with PBS and 200 ml of serum-free media containing 0.1% BSA (SF-BSA) was added back to the cells. The cells were grown for an additional 24 h. […] Controls were run in the absence of HGF and/or in the absence of test HGF proteins.
The cells were allowed to grow for 72 h and then assayed using the CellTiter-Glo Luminescent Kit (Promega G7571, Madison, Wis.). The procedure followed is described in Promega Technical Bulletin TB288. The microtiter plate was read on a Tropix TR717 microplate luminometer (Berthold 75323 Bad Wildbad, Germany). The percent of stimulation or inhibition of cell proliferation was normalized to the appropriate controls.

Substance | inhibition of HGF-dependent cell proliferation activity (% activity II) [4] [%] | inhibition of HGF-dependent cell proliferation activity (% activity I) [4] [%] | other results
HGF β: HGF β-chain residues Val495 to Ser728 with Cys604 to Ser mutation and C-terminal His6 tag | – | – | effect in cell migration assay ([1]; concentrations of up to 0.95 μM): had no effect
K641A [c173] (ligand) | – | – | IC50mut/IC50WT [2]: 1.04
HGF: wild type hepatocyte growth factor, disulfide-linked two-chain α/β heterodimer, recombinant from CHO cells | – | – | proliferation activity at 25 ng/ml as % of the activity at 100 ng/ml [3]: 83.6±13.0%
HGF R695A: full length two-chain HGF with R695A mutation in the β-chain | 68 | 79 | –
proHGF: uncleavable single chain form of HGF with amino acid changes R494E and R424A | 75 | 63 | stimulation of cell migration ([1]; 1 nM, MDA-MB435 cells, FIG. 2B, 2C): did not stimulate cell migration
